Test results published in patent US10993984B2, “Terlipressin compositions and their methods of use” (Chiasma, Inc., priority 2016, dated 2021).
Bridge positions count the residues as written; N and C are the ends. Peptide text beside a SMILES is read from it.

Assay: in vivo
Conditions: dog, iv, 0.2 mg
Method: The IV dosage was 0.2 mg per dog which is similar to the therapeutic dosage in humans. The oral dosage was 20 mg, and was selected by assuming a BA of about 1%. The concentration of both terlipressin and the active metabolite lysine vasopressin are shown as a function of time. The pharmacokinetic parameters of the active metabolite lysine-vasopressin were determined as well as terlipressin. Each Glypressin ampule contains 1 mg terlipressin acetate, which is equivalent to 0.85 mg terlipressin base. All doses in this study are expressed on the basis of terlipressin base.
All animals were fasted for at least 12 hours prior to dosing and through the first 4 hours of blood sample collection.
In the oral terlipressin capsule treatments, in order to acidify the stomach of the dog, approximately 30 minutes prior to dosing each animal received a single subcutaneous (SC) injection of pentagastrin (0.12 mg/mL) at a dose level of 0.006 mg/kg and a dose volume of 0.05 mL/kg. The same dogs can be used for more than one treatment, with a wash-out period of at least 1 week.
Blood was withdrawn at pre-determined times as follows:

AUC(0-inf): 9.14 ng·h/mL
AUC(0-t): 9.13 ng·h/mL
Cmax: 59.1 ng/mL
half-life: 13.9 ± 1.32 min
Compound: NCCCC[C@H](NC(=O)[C@@H]1CCCN1C(=O)[C@@H]1CSSC[C@H](NC(=O)CNC(=O)CNC(=O)CN)C(=O)N[C@@H](Cc2ccc(O)cc2)C(=O)N[C@@H](Cc2ccccc2)C(=O)N[C@@H](CCC(N)=O)C(=O)N[C@@H](CC(N)=O)C(=O)N1)C(=O)NCC(N)=O [IV terlipressin, Terlipressin] (H-GGGCYFQNCPKG-NH2; disulfide 4-9)
